# Data reported in patent publication US11447489B2, “Dihydropyrimidinylthiazole for the treatment and prophylaxis of hepatitis B virus infection” (priority 2017, dated 2022).
# Test system: HBsAg
# Assay: HepG2.2.15 cells primary screen assay: HBsAg assay (CLIA of secreted HBsAg)
# Format: cell-based, HBV
# Details: Hepatitis B virus
# Method: Example 23: HepG2.2.15 Cells Primary Screen Assay
# HepG2.2.15 cells (Acs et al. Proc Natl Acad Sci USA, 84, (1987), 4641-4), a constitutively HBV-expressing cell line were cultured in DMEM+Glutamax-I medium (Invitrogen, Carlsbad, Calif., USA), supplemented with 10% fetal bovine serum (Invitrogen) and G418 (Invitrogen) at a final concentration of 200 mg/L and maintained in 5% CO2 at 37° C.
# HepG2.2.15 cells were seeded in duplicate into white, 96-well plates at 1.5×10^4 cells/well. The cells were treated with a three-fold serial dilution series of the compounds in DMSO. The final DMSO concentration in all wells was 1% and DMSO was used as no drug control.
# The HBsAg chemiluminescence immunoassay (CLIA) kit (Autobio Diagnostics Co., Zhengzhou, China, Catalog number: CL0310-2) was used to measure the levels of secreted HBV antigens semi-quantitatively. For the detection 50 μL/well culture supernatant was used and HBsAg was quantified using HBsAg chemiluminescence immunoassay (CLIA) kit (Autobio Diagnostics Co., Zhengzhou, China, Catalog number: CL0310-2), 50 μL of the supernatant was transferred to the CLIA assay plate and 50 μL of enzyme conjugate reagent was added into each well. The plates were sealed and gently agitated for 1 hour at room temperature. The supernatant-enzyme-mixture was discarded and wells were washed 6 times with 300 μL of PBS. The residual liquid was removed by plating the CLIA plate […] on absorbent tissue paper. 25 μL of substrates A and B were added to each well. Luminance was measured using a luminometer (Mithras LB 940 Multimode Microplate Reader) after 10 minutes incubation. Dose-response curves were generated and the IC50 value was extrapolated by using the E-WorkBook Suite (ID Business Solutions Ltd., Guildford, UK). The IC50 was defined as the compound concentration (or conditioned media log dilution) at which HBsAg secretion was reduced by 50% compared to the no drug control.
# The compounds of the present invention were tested for their capacity to inhibit HBsAg as described herein.
row,Structure (SMILES),IC50 [nM]
1,"COC(=O)C1=C(CN2CCN3C(=O)N(CC(C)(C)CC(=O)NCCCCCCOc4cc5c(cc4OC)-c4cc(=O)c(C(=O)O)cn4C(C(C)(C)C)C5)C[C@@H]3C2)NC(c2nccs2)=N[C@H]1c1ccc(F)cc1Cl (stereo partly drawn) [Example 16, 9-[6-[[4-[(8aS)-7-[[(4R)-4-(2-chloro-4-fluoro-phenyl)-5-methoxycarbonyl-2-thiazol-2-yl-1,4-dihydropyrimidin-6-yl]methyl]-3-oxo-5,6,8,8a-tetrahydro-1H-imidazo[1,5-a]pyrazin-2-yl]-3,3-dimethyl-butanoyl]amino]hexoxy]-6-tert-butyl-10-methoxy-2-oxo-6,7-dihydrobenzo[a]quinolizine-3-carboxylic Acid]",107
2,"COC(=O)C1=C(CN2CCN3C(=O)N(CC(C)(C)CC(=O)NCCCCCCOc4cc(N5CCc6nc(-c7ncccn7)ncc6C5C)cc(F)c4F)C[C@@H]3C2)NC(c2nccs2)=N[C@H]1c1ccc(F)cc1Cl (stereo partly drawn) [Example 17, methyl (4R)-6-[[(8aS)-2-[4-[6-[2,3-difluoro-5-[5-methyl-2-pyrimidin-2-yl-7,8-dihydro-5H-pyrido[4,3-d]pyrimidin-6-yl]phenoxy]hexylamino]-2,2-dimethyl-4-oxo-butyl]-3-oxo-5,6,8,8a-tetrahydro-1H-imidazo[1,5-a]pyrazin-7-yl]methyl]-4-(2-chloro-4-fluoro-phenyl)-2-thiazol-2-yl-1,4-dihydropyrimidine-5-carboxylate]",1190
3,"COC(=O)C1=C(CN2CCOC[C@H]2C(=O)NCCCCCCOc2cc(N3CCc4nc(-c5ncccn5)ncc4C3C)cc(F)c2F)NC(c2nccs2)=N[C@H]1c1ccc(F)cc1Cl (stereo partly drawn) [Example 18, methyl (4R)-4-(2-chloro-4-fluoro-phenyl)-6-[[(3S)-3-[6-[2,3-difluoro-5-(5-methyl-2-pyrimidin-2-yl-7,8-dihydro-5H-pyrido[4,3-d]pyrimidin-6-yl)phenoxy]hexylcarbamoyl]morpholin-4-yl]methyl]-2-thiazol-2-yl-1,4-dihydropyrimidine-5-carboxylate]",912
4,"COC(=O)C1=C(CN2CCOC[C@H]2CN(C)CCCCCCOc2cc(N3CCc4nc(-c5ncccn5)ncc4C3C)cc(F)c2F)NC(c2nccs2)=N[C@H]1c1ccc(F)cc1Cl (stereo partly drawn) [Example 19, methyl (4R)-4-(2-chloro-4-fluoro-phenyl)-6-[[(3R)-3-[[6-[2,3-difluoro-5-(5-methyl-2-pyrimidin-2-yl-7,8-dihydro-5H-pyrido[4,3-d]pyrimidin-6-yl)phenoxy]hexyl-methyl-amino]methyl]morpholin-4-yl]methyl]-2-thiazol-2-yl-1,4-dihydropyrimidine-5-carboxylate]",724
5,"COC(=O)C1=C(COc2cc(N3CCc4nc(-c5ncccn5)ncc4C3C)cc(F)c2F)NC(c2nccs2)=N[C@H]1c1ccc(F)cc1Cl (stereo partly drawn) [Example 20, methyl (4R)-4-(2-chloro-4-fluoro-phenyl)-6-[[2,3-difluoro-5-(5-methyl-2-pyrimidin-2-yl-7,8-dihydro-5H-pyrido[4,3-d]pyrimidin-6-yl)phenoxy]methyl]-2-thiazol-2-yl-1,4-dihydropyrimidine-5-carboxylate]",824
6,"COC(=O)C1=C(CN2CCN(CC[C@@H](NCCCCCCOc3cc(N4CCc5nc(-c6ncccn6)ncc5C4C)cc(F)c3F)C(=O)O)CC2)NC(c2nccs2)=N[C@H]1c1ccc(F)cc1Cl (stereo partly drawn) [Example 21, (2R)-4-[4-[[(4R)-4-(2-chloro-4-fluoro-phenyl)-5-methoxycarbonyl-2-thiazol-2-yl-1,4-dihydropyrimidin-6-yl]methyl]piperazin-1-yl]-2-[6-[2,3-difluoro-5-(5-methyl-2-pyrimidin-2-yl-7,8-dihydro-5H-pyrido[4,3-d]pyrimidin-6-yl)phenoxy]hexylamino]butanoic Acid]",582
7,"COC(=O)C1=C(CN2CCN(c3cc(F)cc(N4CCc5nc(-c6ncccn6)ncc5C4C)n3)C(C(=O)O)C2)NC(c2nccs2)=N[C@H]1c1ccc(F)cc1Cl (stereo partly drawn) [Example 22, 4-[[(4R)-4-(2-chloro-4-fluoro-phenyl)-5-methoxycarbonyl-2-thiazol-2-yl-1,4-dihydropyrimidin-6-yl]methyl]-1-[4-fluoro-6-[5-methyl-2-pyrimidin-2-yl-7,8-dihydro-5H-pyrido[4,3-d]pyrimidin-6-yl]-2-pyridyl]piperazine-2-carboxylic Acid]",618
